Where two headings read alike, the source gives them in different places.
Target: T1, F508delCFTR (Homo sapiens, UniProt P13569, DEL508-508)
T1 construct: expressed in transfected cells; host or cells: CFBE41o- human lung derived epithelial cells (CFBE41o-F508delCFTR-HRP), doxycycline-inducible
Experiment: Cell Surface Expression-Horse Radish Peroxidase (CSE-HRP) Assay;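 as to EC50 (with co-corrector): co-corrector chromenyl benzoic acid corrector at 2 or 3 µM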;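 as to Maximum % activity (without co-corrector): % of on-plate positive control chromenyl benzoic acid corrector at 2 or 3 µM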
Assay type: cell-based
Conditions: for Maximum % activity (with co-corrector) / Emax: maximum at any tested concentration; for Emax: read-out: Maximum % activity (without co-corrector)
Method in brief: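 Corrector compounds were given as 8-point 3-fold series from 20 or 30 μM, with or without a 2 μM co-corrector, for 18-24 h at 33 °C. Surface HRP was read by luminol luminescence as % of positive control; variable-Hill-slope sigmoidal fitting gave EC50 from triplicate plates.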

[1] = test compound alone, without co-corrector, read-out: EC50 (without co-corrector)
[2] = with co-corrector, read-out: EC50 (with co-corrector)

T1 sequence (P13569 with tags, fused parts or gaps DEL508-508): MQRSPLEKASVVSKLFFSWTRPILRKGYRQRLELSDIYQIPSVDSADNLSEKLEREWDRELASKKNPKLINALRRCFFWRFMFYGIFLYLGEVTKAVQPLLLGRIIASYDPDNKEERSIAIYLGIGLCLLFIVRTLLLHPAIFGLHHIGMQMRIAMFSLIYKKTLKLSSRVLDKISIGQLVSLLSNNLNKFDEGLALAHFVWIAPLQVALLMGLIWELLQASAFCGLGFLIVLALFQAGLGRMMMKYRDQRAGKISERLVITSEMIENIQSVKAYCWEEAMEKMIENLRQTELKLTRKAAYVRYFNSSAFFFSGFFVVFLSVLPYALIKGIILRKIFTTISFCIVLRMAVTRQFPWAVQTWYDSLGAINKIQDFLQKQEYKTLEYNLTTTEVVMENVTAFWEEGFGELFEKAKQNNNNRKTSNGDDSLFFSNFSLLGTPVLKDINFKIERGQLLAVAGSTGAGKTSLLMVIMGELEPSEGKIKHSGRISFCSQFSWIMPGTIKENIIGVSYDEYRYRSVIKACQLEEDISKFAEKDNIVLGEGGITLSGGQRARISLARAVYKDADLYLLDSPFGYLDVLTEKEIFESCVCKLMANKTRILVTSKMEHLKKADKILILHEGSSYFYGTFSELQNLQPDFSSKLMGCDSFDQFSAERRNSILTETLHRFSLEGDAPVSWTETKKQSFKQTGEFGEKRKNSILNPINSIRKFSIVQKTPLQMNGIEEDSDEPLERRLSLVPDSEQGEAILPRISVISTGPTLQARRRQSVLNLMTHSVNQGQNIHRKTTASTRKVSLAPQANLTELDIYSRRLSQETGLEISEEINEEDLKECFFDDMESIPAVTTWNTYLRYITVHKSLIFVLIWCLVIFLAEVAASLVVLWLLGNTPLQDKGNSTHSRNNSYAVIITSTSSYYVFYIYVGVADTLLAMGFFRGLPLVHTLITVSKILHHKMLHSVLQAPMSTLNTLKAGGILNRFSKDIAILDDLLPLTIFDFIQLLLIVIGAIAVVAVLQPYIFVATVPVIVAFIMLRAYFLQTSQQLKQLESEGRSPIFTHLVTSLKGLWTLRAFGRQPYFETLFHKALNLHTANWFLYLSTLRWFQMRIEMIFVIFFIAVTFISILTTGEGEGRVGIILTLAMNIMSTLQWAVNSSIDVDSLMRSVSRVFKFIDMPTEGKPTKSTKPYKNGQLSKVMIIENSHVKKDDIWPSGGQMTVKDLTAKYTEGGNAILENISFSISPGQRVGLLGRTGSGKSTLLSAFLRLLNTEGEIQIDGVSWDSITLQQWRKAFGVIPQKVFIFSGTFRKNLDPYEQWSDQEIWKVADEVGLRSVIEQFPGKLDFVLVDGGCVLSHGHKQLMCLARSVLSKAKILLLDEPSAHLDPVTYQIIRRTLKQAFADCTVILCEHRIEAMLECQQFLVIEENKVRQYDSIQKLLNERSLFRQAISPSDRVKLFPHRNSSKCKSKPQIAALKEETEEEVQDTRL

Structure (SMILES)	EC50 [1]	Maximum % activity (with co-corrector) (with co-corrector)	EC50 [2]	Emax (without co-corrector)
Cc1ccc(O[C@H]2CCOC2)c(C2(C(=O)NS(=O)(=O)c3cccc4nc(C)ccc34)CC2)c1 [Example I-124, 1-(5-methyl-2-{[(3S)-oxolan-3-yl]oxy}phenyl)-N-(2-methylquinoline-5-sulfonyl)cyclopropane-1-carboxamide]	< 3 µM	+++ (≥350)	< 3 µM	> 150%
O=C(NS(=O)(=O)c1ccccc1)C1(c2ccc(Cl)cc2Cl)CC1 [Example III-3, N-(benzenesulfonyl)-1-(2,4-dichlorophenyl)cyclopropane-1-carboxamide]	3 to 10 µM	+++ (≥350)	3 to 10 µM	50 to 150%
COc1ccc(C2(C(=O)NS(=O)(=O)c3ccccc3)CC2)cc1 [Example III-5, N-(benzenesulfonyl)-1-(4-methoxyphenyl)cyclopropane-1-carboxamide]	> 10 µM	+ (<150)	> 10 µM	< 50%
O=C(NS(=O)(=O)c1ccccc1)C1(c2ccccc2)CC1 [Example III-6, N-(benzenesulfonyl)-1-phenylcyclopropane-1-carboxamide]	> 10 µM	++ (≥150 and <350)	3 to 10 µM	< 50%
O=C(NS(=O)(=O)c1ccccc1)C1(c2ccc(Cl)cc2)CCC1 [Example III-7, N-(benzenesulfonyl)-1-(4-chlorophenyl)cyclobutane-1-carboxamide]	> 10 µM	++ (≥150 and <350)	3 to 10 µM	< 50%
O=C(NS(=O)(=O)c1ccc2c(c1)CCC2)C1(c2ccc(Cl)cc2Cl)CC1 [Example III-8, 1-(2,4-dichlorophenyl)-N-(2,3-dihydro-1H-indene-5-sulfonyl)cyclopropane-1-carboxamide]	> 10 µM	++ (≥150 and <350)	3 to 10 µM	< 50%
O=C(NS(=O)(=O)c1ccc(Cl)cc1)C1(c2ccc(Cl)cc2Cl)CC1 [Example III-9, N-(4-chlorobenzene-1-sulfonyl)-1-(2,4-dichlorophenyl)cyclopropane-1-carboxamide]	> 10 µM	+ (<150)	3 to 10 µM	< 50%
O=C(NS(=O)(=O)c1ccc(Cl)cc1)C1(c2cccc(Cl)c2)CC1 [Example III-10, N-(4-chlorobenzene-1-sulfonyl)-1-(3-chlorophenyl)cyclopropane-1-carboxamide]	> 10 µM	+ (<150)	> 10 µM	< 50%
COC(=O)c1csc(S(=O)(=O)NC(=O)C2(c3ccc(Cl)cc3Cl)CC2)c1OC [Example III-11, methyl 5-{[1-(2,4-dichlorophenyl)cyclopropane-1-carbonyl]sulfamoyl}-4-methoxythiophene-3-carboxylate]	> 10 µM	+ (<150)	> 10 µM	< 50%
Cc1noc(C)c1S(=O)(=O)NC(=O)C1(c2ccc(Cl)cc2Cl)CC1 [Example III-12, 1-(2,4-dichlorophcnyl)-N-(3,5-dimethyl-1,2-oxazole-4-sulfonyl)cyclopropane-1-carboxamide]	> 10 µM	++ (≥150 and <350)	3 to 10 µM	< 50%
O=C(NS(=O)(=O)c1ccccc1OC(F)(F)F)C1(c2ccc(Cl)cc2Cl)CC1 [Example III-13, 1-(2,4-dichlorophenyl)-N-[2-(trifluoromethoxy)benzene-1-sulfonyl]cyclopropane-1-carboxamide]	3 to 10 µM	++ (≥150 and <350)	< 3 µM	< 50%
O=C(NS(=O)(=O)c1ccc(OC(F)(F)F)cc1)C1(c2ccc(Cl)cc2Cl)CC1 [Example III-14, 1-(2,4-dichlorophenyl)-N-[4-(trifluoromethoxy)benzene-1-sulfonyl]cyclopropane-1-carboxamide]	> 10 µM	+ (<150)	> 10 µM	< 50%
O=C(NS(=O)(=O)c1cccc(C(F)(F)F)c1)C1(c2ccc(Cl)cc2Cl)CC1 [Example III-15, 1-(2,4-dichlorophenyl)-N-[3-(trifluoromethyl)benzene-1-sulfonyl]cyclopropane-1-carboxamide]	3 to 10 µM	++ (≥150 and <350)	3 to 10 µM	< 50%
O=C1CCCN1c1ccc(S(=O)(=O)NC(=O)C2(c3ccc(Cl)cc3Cl)CC2)cc1 [Example III-16, 1-(2,4-dichlorophenyl)-N-[4-(2-oxopyrrolidin-1-yl)benzene-1-sulfonyl]cyclopropane-1-carboxamide]	> 10 µM	+ (<150)	> 10 µM	< 50%
O=C(NS(=O)(=O)c1ccc(-c2ccno2)s1)C1(c2ccc(Cl)cc2Cl)CC1 [Example III-17, 1-(2,4-dichlorophenyl)-N-[5-(1,2-oxazol-5-yl)thiophene-2-sulfonyl]cyclopropane-1-carboxamide]	> 10 µM	+ (<150)	> 10 µM	< 50%
CN(C(=O)C1(c2ccc(Cl)cc2Cl)CC1)S(=O)(=O)c1ccc(Cl)cc1 [Example III-19, N-(4-chlorobenzene-1-sulfonyl)-1-(2,4-dichlorophenyl)-N-methylcyclopropane-1-carboxamide]	> 10 µM	+ (<150)	> 10 µM	< 50%
CC(C)Oc1ccc(S(=O)(=O)NC(=O)C2(c3ccc(Cl)cc3Cl)CC2)cc1 [Example III-20, 1-(2,4-dichlorophenyl)-N-{4-[(propan-2-yl)oxy]benzene-1-sulfonyl}cyclopropane-1-carboxamide]	> 10 µM	+ (<150)	> 10 µM	< 50%
O=C(OCc1ccccc1)N1CCC(S(=O)(=O)NC(=O)C2(c3ccc(Cl)cc3Cl)CC2)CC1 [Example III-22, benzyl 4-{[1-(2,4-dichlorophenyl)cyclopropane-1-carbonyl]sulfamoyl}piperidine-1-carboxylate]	> 10 µM	++ (≥150 and <350)	3 to 10 µM	< 50%
O=C(NS(=O)(=O)c1ccccc1Cl)C1(c2cccc(Cl)c2)CC1 [Example III-23, N-(2-chlorobenzene-1-sulfonyl)-1-(3-chlorophenyl)cyclopropane-1-carboxamide]	3 to 10 µM	+++ (≥350)	3 to 10 µM	50 to 150%
COc1ccc(S(=O)(=O)NC(=O)C2(c3ccc(Cl)cc3Cl)CC2)cc1 [Example III-24, 1-(2,4-dichlorophenyl)-N-(4-methoxybenzene-1-sulfonyl)cyclopropane-1-carboxamide]	> 10 µM	++ (≥150 and <350)	> 10 µM	< 50%
COc1ccc(S(=O)(=O)NC(=O)C2(c3ccc(Cl)cc3Cl)CC2)cc1OC [Example III-25, 1-(2,4-dichlorophenyl)-N-(3,4-dimethoxybenzene-1-sulfonyl)cyclopropane-1-carboxamide]	> 10 µM	+ (<150)	3 to 10 µM	< 50%
O=C(NS(=O)(=O)c1cccc(Cl)c1)C1(c2ccc(Cl)cc2Cl)CC1 [Example III-26, N-(3-chlorobenzene-1-sulfonyl)-1-(2,4-dichlorophenyl)cyclopropane-1-carboxamide]	3 to 10 µM	++ (≥150 and <350)	3 to 10 µM	< 50%
O=C(NS(=O)(=O)c1ccc2ccccc2c1)C1(c2ccc(Cl)cc2Cl)CC1 [Example III-27, 1-(2,4-dichlorophenyl)-N-(naphthalene-2-sulfonyl)cyclopropane-1-carboxamide]	> 10 µM	+ (<150)	> 10 µM	< 50%
O=C(NS(=O)(=O)C1CC1)C1(c2ccc(Cl)cc2Cl)CC1 [Example III-28, N-(cyclopropanesulfonyl)-1-(2,4-dichlorophenyl)cyclopropane-1-carboxamide]	> 10 µM	+ (<150)	3 to 10 µM	< 50%
Cc1ccc(C2(C(=O)NS(=O)(=O)c3ccccc3)CC2)cc1 [Example III-29, N-(benzenesulfonyl)-1-(4-methylphenyl)cyclopropane-1-carboxamide]	3 to 10 µM	++ (≥150 and <350)	3 to 10 µM	< 50%
O=C(NS(=O)(=O)c1ccccc1)C1(c2ccccc2F)CC1 [Example III-30, N-(benzenesulfonyl)-1-(2-fluorophenyl)cyclopropane-1-carboxamide]	> 10 µM	++ (≥150 and <350)	3 to 10 µM	< 50%
O=C(NS(=O)(=O)c1ccccc1)C1(c2ccc(F)cc2)CC1 [Example III-31, N-(benzenesulfonyl)-1-(4-fluorophenyl)cyclopropane-1-carboxamide]	> 10 µM	++ (≥150 and <350)	3 to 10 µM	< 50%
O=C(NS(=O)(=O)c1ccccc1)C1(c2ccccc2Cl)CC1 [Example III-32, N-(benzenesulfonyl)-1-(2-chlorophenyl)cyclopropane-1-carboxamide]	3 to 10 µM	++ (≥150 and <350)	3 to 10 µM	< 50%
